# Reference: patent US8697632B2 (priority 2008, dated 2014)
# “And” between values parts separate entries of the source, which are not always exact repeats. Equal entries are not always repeated. Peptide text beside a SMILES is read from it.
# What was measured:
# [1] = Rate of model dipeptide cleavage in PBS (model hexapeptide); conditions: Table 2, dipeptide on side chain of N-terminal para-amino-Phe of HSRGTF-NH2
# Description: The rate of cleavage was determined for the respective propeptides. The concentrations of the propeptides and the model parent peptide were determined by their respective peak areas. […] The slope of this plot provides the rate constant ‘k’.
# [2] = cited from earlier work
# [3] = target: T1, insulin receptor (Homo sapiens, UniProt P06213); test: Insulin receptor competition binding assay (scintillation proximity); conditions: Table 9; for Ratio: IGF-1 receptor vs insulin receptor binding
# T1 construct: expressed in transfected cells; plasma membrane fragments
# [4] = target: T2, IGF-1 receptor (Homo sapiens, UniProt P08069); test: IGF-1 receptor competition binding assay (scintillation proximity); conditions: Table 9
# T2 construct: expressed in transfected cells; plasma membrane fragments
# [5] = cited from earlier work; remark: listed apart in the source
# [6] = in vivo; cited from earlier work
# [7] = Dipeptide cleavage from prodrug forms of IGF1 peptides in PBS; assay type: physicochemical; conditions: pH 7.4 at 37° C.
# Description: The rate of cleavage was determined for the respective propeptides. The concentrations of the propeptides and the model parent peptide were determined by their respective peak areas. The first order dissociation rate constants of the prodrugs were determined by plotting the logarithm of the concentration of the prodrug at various time intervals. The slope of this plot provides the rate constant ‘k’.
# The IGF^B16B17 derivative peptide prodrugs were incubated in PBS, pH 7.4 at 37° C. and at predetermined time intervals an aliquot was taken and further degredation was quenched with 0.1% TFA and the aliquot was subjected to analytical HPLC analysis.
# T1 sequence (P06213 28-758 limits assumed): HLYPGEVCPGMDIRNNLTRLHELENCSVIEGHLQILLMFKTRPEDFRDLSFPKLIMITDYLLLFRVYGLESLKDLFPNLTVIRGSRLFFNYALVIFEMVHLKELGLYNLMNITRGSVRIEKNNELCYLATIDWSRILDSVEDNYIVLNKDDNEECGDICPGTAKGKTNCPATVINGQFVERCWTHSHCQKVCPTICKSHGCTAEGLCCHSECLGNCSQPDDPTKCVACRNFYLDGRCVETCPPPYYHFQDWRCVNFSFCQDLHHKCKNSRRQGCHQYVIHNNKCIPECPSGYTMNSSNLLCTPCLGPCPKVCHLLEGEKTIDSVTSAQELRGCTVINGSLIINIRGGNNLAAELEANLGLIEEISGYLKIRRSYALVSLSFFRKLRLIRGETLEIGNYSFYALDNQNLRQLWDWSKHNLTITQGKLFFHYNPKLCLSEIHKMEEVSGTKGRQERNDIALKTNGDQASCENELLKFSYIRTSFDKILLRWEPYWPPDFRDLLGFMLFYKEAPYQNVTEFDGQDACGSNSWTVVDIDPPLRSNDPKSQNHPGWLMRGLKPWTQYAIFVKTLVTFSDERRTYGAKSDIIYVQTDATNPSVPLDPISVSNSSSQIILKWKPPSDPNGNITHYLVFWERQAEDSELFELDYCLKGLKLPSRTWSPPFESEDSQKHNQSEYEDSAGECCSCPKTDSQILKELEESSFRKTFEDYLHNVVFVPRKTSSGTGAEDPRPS
# T1 sequence (P06213 763-1382 limits assumed): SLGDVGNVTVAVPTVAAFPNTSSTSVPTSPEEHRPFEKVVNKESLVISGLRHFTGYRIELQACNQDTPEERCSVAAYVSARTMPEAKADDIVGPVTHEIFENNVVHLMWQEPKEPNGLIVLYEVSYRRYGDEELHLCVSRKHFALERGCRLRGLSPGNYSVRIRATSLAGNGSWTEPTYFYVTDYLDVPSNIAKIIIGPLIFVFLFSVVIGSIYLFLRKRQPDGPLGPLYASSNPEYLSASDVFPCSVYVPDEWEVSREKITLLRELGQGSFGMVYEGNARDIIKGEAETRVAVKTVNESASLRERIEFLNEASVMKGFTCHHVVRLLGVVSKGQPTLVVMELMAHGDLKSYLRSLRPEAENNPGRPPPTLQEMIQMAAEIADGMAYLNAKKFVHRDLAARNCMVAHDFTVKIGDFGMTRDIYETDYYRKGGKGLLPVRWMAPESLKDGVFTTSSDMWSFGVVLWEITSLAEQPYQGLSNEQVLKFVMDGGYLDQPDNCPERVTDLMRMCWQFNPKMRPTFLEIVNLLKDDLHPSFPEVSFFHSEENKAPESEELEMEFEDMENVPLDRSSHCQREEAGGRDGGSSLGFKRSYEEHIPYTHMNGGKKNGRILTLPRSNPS
# T2 sequence (P08069 31-736 limits assumed): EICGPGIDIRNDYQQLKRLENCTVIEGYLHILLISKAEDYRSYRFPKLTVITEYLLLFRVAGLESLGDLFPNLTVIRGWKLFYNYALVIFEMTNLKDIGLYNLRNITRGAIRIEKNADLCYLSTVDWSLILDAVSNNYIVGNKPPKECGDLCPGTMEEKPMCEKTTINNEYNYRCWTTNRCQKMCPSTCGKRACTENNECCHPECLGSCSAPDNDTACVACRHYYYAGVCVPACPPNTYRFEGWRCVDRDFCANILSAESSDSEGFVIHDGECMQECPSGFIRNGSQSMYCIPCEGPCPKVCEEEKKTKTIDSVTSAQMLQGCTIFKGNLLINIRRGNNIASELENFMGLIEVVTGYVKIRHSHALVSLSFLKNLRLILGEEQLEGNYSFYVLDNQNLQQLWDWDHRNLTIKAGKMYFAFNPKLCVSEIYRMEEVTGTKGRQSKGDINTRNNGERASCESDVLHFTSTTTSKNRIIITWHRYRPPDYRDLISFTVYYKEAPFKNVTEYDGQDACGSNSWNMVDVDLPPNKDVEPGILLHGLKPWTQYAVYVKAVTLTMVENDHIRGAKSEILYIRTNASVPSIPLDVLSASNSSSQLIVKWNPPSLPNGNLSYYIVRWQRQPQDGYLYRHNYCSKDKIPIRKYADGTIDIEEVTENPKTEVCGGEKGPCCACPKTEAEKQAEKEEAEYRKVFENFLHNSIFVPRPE
# T2 sequence (P08069 741-1367 limits assumed): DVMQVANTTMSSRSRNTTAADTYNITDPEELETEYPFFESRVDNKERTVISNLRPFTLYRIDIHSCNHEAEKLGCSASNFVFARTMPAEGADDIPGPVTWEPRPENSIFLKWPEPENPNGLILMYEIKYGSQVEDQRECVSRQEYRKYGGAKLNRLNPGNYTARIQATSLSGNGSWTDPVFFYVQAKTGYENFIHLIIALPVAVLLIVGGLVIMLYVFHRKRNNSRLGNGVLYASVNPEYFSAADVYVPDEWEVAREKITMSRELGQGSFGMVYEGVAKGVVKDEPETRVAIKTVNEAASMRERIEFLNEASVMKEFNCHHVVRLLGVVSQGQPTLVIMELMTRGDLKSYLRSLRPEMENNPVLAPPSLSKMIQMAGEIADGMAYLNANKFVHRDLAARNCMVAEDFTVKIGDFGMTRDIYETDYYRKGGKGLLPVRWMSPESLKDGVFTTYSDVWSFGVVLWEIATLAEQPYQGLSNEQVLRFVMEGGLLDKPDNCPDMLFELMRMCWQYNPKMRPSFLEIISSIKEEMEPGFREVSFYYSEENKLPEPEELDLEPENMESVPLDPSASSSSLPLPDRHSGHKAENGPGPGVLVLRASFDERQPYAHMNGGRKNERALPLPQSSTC
compound,measurement,setting,value
C[C@@H](O)[C@H](NC(=O)CNC(=O)[C@H](CCCNC(=N)N)NC(=O)[C@H](CO)NC(=O)[C@H](Cc1c[nH]cn1)NC(=O)[C@@H](N)Cc1ccc(NC(=O)CNC(=O)CO)cc1)C(=O)N[C@@H](Cc1ccccc1)C(N)=O [Compound 19],t1/2 (result in words),[1],No cleavage
"[GlyA21, ArgB31, ArgB32]insulin",IGF-1 affinity (in words),[2],enhanced IGF-1 affinity
CC[C@H](C)[C@H](NC(=O)CN)C(=O)N[C@H](C(=O)N[C@@H](CC(=O)O)C(=O)N[C@@H](CCC(=O)O)C(=O)N[C@H]1CSSC[C@@H]2NC(=O)[C@H](CO)NC(=O)[C@H](CCCNC(=N)N)NC(=O)[C@H](Cc3ccccc3)NC(=O)[C@H](CSSC[C@H](NC(=O)[C@H](CC(C)C)NC(=O)[C@H](Cc3c[nH]cn3)NC(=O)[C@H](CCC(N)=O)NC(=O)[C@H](CC(N)=O)NC(=O)[C@@H](NC(=O)[C@@H](N)Cc3ccccc3)C(C)C)C(=O)NCC(=O)N[C@@H](CO)C(=O)N[C@@H](Cc3c[nH]cn3)C(=O)N[C@@H](CC(C)C)C(=O)N[C@@H](C(C)C)C(=O)N[C@@H](CCC(=O)O)C(=O)N[C@@H](C)C(=O)N[C@@H](CC(C)C)C(=O)N[C@@H](Cc3ccc(O)cc3)C(=O)N[C@@H](CC(C)C)C(=O)N[C@@H](C(C)C)C(=O)N[C@H](C(=O)NCC(=O)N[C@@H](CC(=O)O)C(=O)N[C@@H](CCCNC(=N)N)C(=O)NCC(=O)N[C@@H](Cc3ccccc3)C(=O)N[C@@H](Cc3ccc(O)cc3)C(=O)N[C@@H](Cc3ccccc3)C(=O)N[C@@H](CC(N)=O)C(=O)N[C@@H](CCCCN)C(=O)N3CCC[C@H]3C(=O)N[C@H](C(N)=O)[C@@H](C)O)CSSC[C@@H](C(=O)N[C@@H](C)C(N)=O)NC(=O)[C@H](Cc3ccc(O)cc3)NC(=O)[C@H](CCSC)NC(=O)[C@H](CCC(=O)O)NC(=O)[C@H](CC(C)C)NC(=O)[C@H](CCCNC(=N)N)NC(=O)[C@H](CCCNC(=N)N)NC(=O)[C@H](CC(C)C)NC(=O)[C@H](CC(=O)O)NC2=O)NC1=O)C(C)C [IGF-1 A:In (1-17)-IGF-1 B (18-30)],Insulin Receptor % insulin (in test),[3],14.0% and 11.3% and 20.1%
same,Ratio,[3],22.6
same,Insulin Receptor % native insulin activity (0.6 nM),[3]; relative to 0.6 nM,21.7% and 22.5% and 24.2%
same,IGF-1 Receptor % IGF-1 (in test),[4],0.9%
C[C@@H](O)[C@H](NC(=O)CNC(=O)[C@H](CCCNC(=N)N)NC(=O)[C@H](CO)NC(=O)[C@H](Cc1c[nH]cn1)NC(=O)[C@@H](N)Cc1ccc(NC(=O)CNC(=O)CN)cc1)C(=O)N[C@@H](Cc1ccccc1)C(N)=O [Compound 18],t1/2 (result in words),[1],No cleavage
"[LysB29-tetradecanoyl, des(B30)]insulin",potency in vivo (in words),[5],reduced potency in vivo
same,plasma half life (in words),[6],increased plasma half life
"CC[C@H](C)[C@H](NC(=O)CN)C(=O)N[C@H](C(=O)N[C@@H](CC(=O)O)C(=O)N[C@@H](CCC(=O)O)C(=O)N[C@@H](C)C(=O)N[C@@H](C)C(=O)N[C@@H](Cc1ccccc1)C(=O)N[C@@H](CCCNC(=N)N)C(=O)N[C@@H](CO)C(=O)N[C@@H](C)C(=O)N[C@@H](CC(=O)O)C(=O)N[C@@H](CC(C)C)C(=O)N[C@@H](CCCNC(=N)N)C(=O)N[C@@H](CCCNC(=N)N)C(=O)N[C@@H](CC(C)C)C(=O)N[C@@H](CCC(=O)O)C(=O)N[C@@H](CCSC)C(=O)N[C@@H](Cc1ccc(NC(=O)[C@@H]2CCCN2C(=O)C(C)(C)N)cc1)C(=O)N[C@@H](C)C(=O)N[C@@H](C)C(N)=O)C(C)C [AiB Pro] (HELM PEPTIDE1{G.I.V.D.E.A.A.F.R.S.A.D.L.R.R.L.E.M.[O=C([C@H](Cc1ccc(N[*:3])cc1)N[*:1])[*:2]].A.A.[am]}|PEPTIDE2{[Aib].P}$PEPTIDE1,PEPTIDE2,19:R3-2:R2$$$V2.0)",dipeptide cleavage / conversion to active form (in words),[7],"spontaneous, non-enzymatic conversion"
CC[C@H](C)[C@H](NC(=O)CN)C(=O)N[C@H](C(=O)N[C@@H](CC(=O)O)C(=O)N[C@@H](CCC(=O)O)C(=O)N[C@H]1CSSC[C@@H]2NC(=O)[C@H](CO)NC(=O)[C@H](CCCNC(=N)N)NC(=O)[C@H](Cc3ccccc3)NC(=O)[C@H](CSSC[C@H](NC(=O)[C@H](CC(C)C)NC(=O)[C@@H](NC(=O)[C@H](CCC(=O)O)NC(=O)[C@@H]3CCCN3C(=O)CN)[C@@H](C)O)C(=O)NCC(=O)N[C@@H](CO)C(=O)N[C@@H](Cc3c[nH]cn3)C(=O)N[C@@H](CC(C)C)C(=O)N[C@@H](C(C)C)C(=O)N[C@@H](CCC(=O)O)C(=O)N[C@@H](C)C(=O)N[C@@H](CC(C)C)C(=O)N[C@@H](Cc3ccc(O)cc3)C(=O)N[C@@H](CC(C)C)C(=O)N[C@@H](C(C)C)C(=O)N[C@H](C(=O)NCC(=O)N[C@@H](CC(=O)O)C(=O)N[C@@H](CCCNC(=N)N)C(=O)NCC(=O)N[C@@H](Cc3ccccc3)C(=O)N[C@@H](Cc3ccc(O)cc3)C(=O)N[C@@H](Cc3ccccc3)C(=O)N[C@@H](CC(N)=O)C(=O)N[C@@H](CCCCN)C(=O)N3CCC[C@H]3C(=O)N[C@H](C(N)=O)[C@@H](C)O)CSSC[C@@H](C(=O)N[C@@H](C)C(N)=O)NC(=O)[C@H](Cc3ccc(O)cc3)NC(=O)[C@H](CCSC)NC(=O)[C@H](CCC(=O)O)NC(=O)[C@H](CC(C)C)NC(=O)[C@H](CCCNC(=N)N)NC(=O)[C@H](CCCNC(=N)N)NC(=O)[C@H](CC(C)C)NC(=O)[C@H](CC(=O)O)NC2=O)NC1=O)C(C)C,Ratio,[3],82.6
CC[C@H](C)[C@H](NC(=O)CN)C(=O)N[C@H](C(=O)N[C@@H](CC(=O)O)C(=O)N[C@@H](CCC(=O)O)C(=O)N[C@H]1CSSC[C@@H]2NC(=O)[C@H](CO)NC(=O)[C@H](CCCNC(=N)N)NC(=O)[C@H](Cc3ccccc3)NC(=O)[C@H](CSSC[C@H](NC(=O)[C@H](CC(C)C)NC(=O)[C@H](Cc3c[nH]cn3)NC(=O)[C@H](CCC(=O)O)NC(=O)[C@@H]3CCCN3C(=O)CN)C(=O)NCC(=O)N[C@@H](C)C(=O)N[C@@H](CC(=O)O)C(=O)N[C@@H](CC(C)C)C(=O)N[C@@H](C(C)C)C(=O)N[C@@H](CC(=O)O)C(=O)N[C@@H](C)C(=O)N[C@@H](CC(C)C)C(=O)N[C@@H](Cc3ccc(O)cc3)C(=O)N[C@@H](CC(C)C)C(=O)N[C@@H](C(C)C)C(=O)N[C@H](C(=O)NCC(=O)N[C@@H](CC(=O)O)C(=O)N[C@@H](CCCNC(=N)N)C(=O)NCC(=O)N[C@@H](Cc3ccccc3)C(=O)N[C@@H](Cc3ccc(O)cc3)C(N)=O)CSSC[C@@H](C(=O)N[C@@H](C)C(N)=O)NC(=O)[C@H](Cc3ccc(O)cc3)NC(=O)[C@H](CC[S+](C)[O-])NC(=O)[C@H](CCC(=O)O)NC(=O)[C@H](CC(C)C)NC(=O)[C@H](CCCNC(=N)N)NC(=O)[C@H](CCCNC(=N)N)NC(=O)[C@H](CC(C)C)NC(=O)[C@H](CC(=O)O)NC2=O)NC1=O)C(C)C (stereo partly shown) [IGF-1 A:B (H5D10Y16L17) (S═O)DPI],IC50,[3]; read-out: Insulin Receptor nM IC50:,0.25 nM
CC[C@H](C)[C@H](NC(=O)CN)C(=O)N[C@H](C(=O)N[C@@H](CC(=O)O)C(=O)N[C@@H](CCC(=O)O)C(=O)N[C@H]1CSSC[C@@H]2NC(=O)[C@H](CO)NC(=O)[C@H](CCCNC(=N)N)NC(=O)[C@H](Cc3ccccc3)NC(=O)[C@H](CSSC[C@H](NC(=O)[C@H](CC(C)C)NC(=O)[C@@H](NC(=O)[C@H](CCC(=O)O)NC(=O)[C@@H]3CCCN3C(=O)CN)[C@@H](C)O)C(=O)NCC(=O)N[C@@H](C)C(=O)N[C@@H](CCC(=O)O)C(=O)N[C@@H](CC(C)C)C(=O)N[C@@H](C(C)C)C(=O)N[C@@H](CC(=O)O)C(=O)N[C@@H](C)C(=O)N[C@@H](CC(C)C)C(=O)N[C@@H](Cc3ccc(O)cc3)C(=O)N[C@@H](CC(C)C)C(=O)N[C@@H](C(C)C)C(=O)N[C@H](C(=O)NCC(=O)N[C@@H](CC(=O)O)C(=O)N[C@@H](CCCNC(=N)N)C(=O)NCC(=O)N[C@@H](Cc3ccccc3)C(=O)N[C@@H](Cc3ccc(O)cc3)C(=O)N[C@@H](Cc3ccccc3)C(=O)N[C@@H](CC(N)=O)C(=O)N[C@@H](CCCCN)C(=O)N3CCC[C@H]3C(=O)N[C@H](C(N)=O)[C@@H](C)O)CSSC[C@@H](C(=O)N[C@@H](C)C(N)=O)NC(=O)[C@H](Cc3ccc(O)cc3)NC(=O)[C@H](CCSC)NC(=O)[C@H](CCC(=O)O)NC(=O)[C@H](CC(C)C)NC(=O)[C@H](CCCNC(=N)N)NC(=O)[C@H](CCCNC(=N)N)NC(=O)[C@H](CC(C)C)NC(=O)[C@H](CC(=O)O)NC2=O)NC1=O)C(C)C [IGF-1 A:B(E10Y16L17)],IC50,[4]; IGF-1 Receptor IC50:,12.2 nM
